Calls of active or inactive are those of the source. The rule behind the calls is not given here.
Key:
[1] = target: Serine/threonine-protein kinase B-raf (Homo sapiens, UniProt P15056); test: BRAF(BRAFLGY1) Takeda global kinase panel
Activin receptor type-2A = Activin receptor type-2A (Homo sapiens, UniProt P27037); test: ACtR2(AC2ALGE1) Takeda global kinase panel
[2] = target: Mitogen-activated protein kinase kinase kinase 9 (Homo sapiens, UniProt P80192); test: MLK1(M3K9LGF1) Takeda global kinase panel
[3] = target: 5-hydroxytryptamine receptor 2A (Homo sapiens, UniProt P28223); conditions: Compound concentration 10.0 uM
[4] = target: Leukocyte tyrosine kinase receptor (Homo sapiens, UniProt P29376); test: LTK(LTK1LGF1) Takeda global kinase panel
[5] = target: Cyclin-dependent kinase 7 (Homo sapiens, UniProt P50613); test: CDK7(CDK7CGS1) Takeda global kinase panel
[6] = target: Serine/threonine-protein kinase Chk1 (Homo sapiens, UniProt O14757); test: CHK1(CHE1CGP1) Takeda global kinase panel
Sequence of Serine/threonine-protein kinase Chk1 (O14757 whole entry): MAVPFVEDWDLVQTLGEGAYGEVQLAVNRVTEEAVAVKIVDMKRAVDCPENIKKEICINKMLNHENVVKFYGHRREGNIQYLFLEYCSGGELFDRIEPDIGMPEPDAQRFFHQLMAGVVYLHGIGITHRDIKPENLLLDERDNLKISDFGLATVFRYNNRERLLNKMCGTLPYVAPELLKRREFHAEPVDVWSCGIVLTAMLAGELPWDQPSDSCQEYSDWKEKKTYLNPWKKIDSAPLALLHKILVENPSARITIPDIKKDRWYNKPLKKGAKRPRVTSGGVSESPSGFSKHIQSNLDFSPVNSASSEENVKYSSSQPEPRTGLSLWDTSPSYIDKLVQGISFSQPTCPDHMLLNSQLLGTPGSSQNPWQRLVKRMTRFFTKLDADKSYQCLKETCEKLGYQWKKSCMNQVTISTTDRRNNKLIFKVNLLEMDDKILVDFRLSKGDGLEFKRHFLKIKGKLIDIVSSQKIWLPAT

[7] = target: Rho-associated protein kinase 1 (Homo sapiens, UniProt Q13464); test: ROCK1(ROC1LGY1) Takeda global kinase panel
Sequence of Rho-associated protein kinase 1 (Q13464 whole entry): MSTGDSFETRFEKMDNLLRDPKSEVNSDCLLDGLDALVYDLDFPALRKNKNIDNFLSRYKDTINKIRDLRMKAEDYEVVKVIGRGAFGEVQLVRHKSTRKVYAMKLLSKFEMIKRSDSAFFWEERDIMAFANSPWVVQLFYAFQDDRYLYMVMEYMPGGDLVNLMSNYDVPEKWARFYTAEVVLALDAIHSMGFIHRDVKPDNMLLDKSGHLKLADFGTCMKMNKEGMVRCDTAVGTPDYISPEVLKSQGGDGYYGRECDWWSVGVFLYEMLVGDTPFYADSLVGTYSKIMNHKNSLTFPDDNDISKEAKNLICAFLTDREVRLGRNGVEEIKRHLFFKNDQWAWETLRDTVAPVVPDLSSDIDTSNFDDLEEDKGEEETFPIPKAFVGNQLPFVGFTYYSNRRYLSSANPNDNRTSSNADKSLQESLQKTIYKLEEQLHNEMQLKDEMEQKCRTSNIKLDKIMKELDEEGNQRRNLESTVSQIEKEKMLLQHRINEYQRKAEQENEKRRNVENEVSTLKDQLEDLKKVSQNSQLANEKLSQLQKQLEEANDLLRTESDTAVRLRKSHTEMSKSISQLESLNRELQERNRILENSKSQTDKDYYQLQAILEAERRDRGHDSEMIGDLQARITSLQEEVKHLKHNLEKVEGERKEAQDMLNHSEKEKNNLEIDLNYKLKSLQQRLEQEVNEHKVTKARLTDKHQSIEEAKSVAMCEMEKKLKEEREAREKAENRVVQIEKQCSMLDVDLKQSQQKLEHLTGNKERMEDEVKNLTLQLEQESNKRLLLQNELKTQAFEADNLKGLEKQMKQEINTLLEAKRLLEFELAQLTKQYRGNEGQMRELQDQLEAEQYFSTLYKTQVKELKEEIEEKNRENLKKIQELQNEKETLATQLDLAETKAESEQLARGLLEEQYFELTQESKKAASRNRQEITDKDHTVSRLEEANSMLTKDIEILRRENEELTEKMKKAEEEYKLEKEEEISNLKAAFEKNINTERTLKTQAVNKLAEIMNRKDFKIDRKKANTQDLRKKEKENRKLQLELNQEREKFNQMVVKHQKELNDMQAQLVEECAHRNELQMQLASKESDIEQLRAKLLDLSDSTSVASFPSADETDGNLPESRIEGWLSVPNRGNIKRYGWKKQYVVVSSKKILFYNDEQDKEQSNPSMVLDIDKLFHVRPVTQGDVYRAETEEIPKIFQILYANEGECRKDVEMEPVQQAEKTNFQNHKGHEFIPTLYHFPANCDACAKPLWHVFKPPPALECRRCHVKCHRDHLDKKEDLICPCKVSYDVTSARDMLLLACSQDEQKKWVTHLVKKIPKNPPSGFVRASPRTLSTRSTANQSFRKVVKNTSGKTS

Ephrin type-A receptor 4 = Ephrin type-A receptor 4 (Homo sapiens, UniProt P54764); test: EphA4(EPA4LGF1) Takeda global kinase panel
[8] = target: Serine/threonine-protein kinase OSR1 (Homo sapiens, UniProt O95747); test: OSR1(OXS1LGY1) Takeda global kinase panel
[9] = target: Mitogen-activated protein kinase kinase kinase kinase 4 (Homo sapiens, UniProt O95819); test: HGK [ZC1(M4K4CGP1)] Takeda global kinase panel
[10] = target: Mitogen-activated protein kinase 14 (Homo sapiens, UniProt Q16539); test: p38alpha(MP14LGI1) Takeda global kinase panel
Sequence of Mitogen-activated protein kinase 14 (Q16539 whole entry): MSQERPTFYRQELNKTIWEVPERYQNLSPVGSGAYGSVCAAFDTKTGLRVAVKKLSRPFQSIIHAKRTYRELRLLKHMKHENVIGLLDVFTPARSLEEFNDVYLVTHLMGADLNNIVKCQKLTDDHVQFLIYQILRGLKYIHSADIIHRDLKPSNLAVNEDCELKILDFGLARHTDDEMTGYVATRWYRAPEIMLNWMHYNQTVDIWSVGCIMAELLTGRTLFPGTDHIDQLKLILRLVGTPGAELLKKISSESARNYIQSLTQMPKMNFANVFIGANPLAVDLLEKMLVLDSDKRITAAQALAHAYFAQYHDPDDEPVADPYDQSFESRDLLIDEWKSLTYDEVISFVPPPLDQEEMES

[11] = target: Vascular endothelial growth factor receptor 3 (Homo sapiens, UniProt P35916); test: FLT4(FLT4LGY1) Takeda global kinase panel
[12] = target: Tyrosine-protein kinase Srms (Homo sapiens, UniProt Q9H3Y6); test: Srm(SRMSLGY1) Takeda global kinase panel
[13] = target: Serine/threonine-protein kinase PAK 6 (Homo sapiens, UniProt Q9NQU5); test: PAK6(PAK6CGY1) Takeda global kinase panel
Sequence of Serine/threonine-protein kinase PAK 6 (Q9NQU5 whole entry): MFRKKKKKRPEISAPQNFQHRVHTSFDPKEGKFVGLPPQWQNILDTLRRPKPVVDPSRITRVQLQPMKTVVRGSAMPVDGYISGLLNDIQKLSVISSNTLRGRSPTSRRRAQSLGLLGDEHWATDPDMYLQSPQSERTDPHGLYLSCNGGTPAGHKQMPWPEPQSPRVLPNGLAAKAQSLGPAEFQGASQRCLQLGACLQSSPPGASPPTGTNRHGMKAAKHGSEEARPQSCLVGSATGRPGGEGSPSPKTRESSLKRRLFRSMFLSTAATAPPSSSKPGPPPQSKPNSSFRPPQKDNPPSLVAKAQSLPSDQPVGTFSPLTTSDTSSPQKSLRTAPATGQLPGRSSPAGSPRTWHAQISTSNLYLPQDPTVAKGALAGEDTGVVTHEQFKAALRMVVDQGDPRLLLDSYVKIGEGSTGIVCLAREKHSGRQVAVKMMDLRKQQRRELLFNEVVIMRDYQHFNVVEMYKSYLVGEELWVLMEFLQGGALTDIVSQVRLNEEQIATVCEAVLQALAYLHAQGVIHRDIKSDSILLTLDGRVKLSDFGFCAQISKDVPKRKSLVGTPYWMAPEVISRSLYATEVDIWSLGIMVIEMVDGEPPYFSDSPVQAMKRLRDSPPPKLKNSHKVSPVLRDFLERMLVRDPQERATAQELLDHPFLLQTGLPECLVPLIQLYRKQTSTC

[14] = target: Calcium/calmodulin-dependent protein kinase type 1G (Homo sapiens, UniProt Q96NX5); test: CaMK1gamma(CA1GLGN1) Takeda global kinase panel
[15] = target: Tyrosine-protein kinase BTK (Homo sapiens, UniProt Q06187); test: BTK(BTK1CGF1) Takeda global kinase panel
[16] = target: 5-hydroxytryptamine receptor 1B (Homo sapiens) (UniProt P28222); conditions: Compound concentration 10.0 uM
[17] = target: Hormonally up-regulated neu tumor-associated kinase (Homo sapiens, UniProt P57058); test: HUNK(HUNKLGRN) Takeda global kinase panel
[18] = target: Tyrosine-protein kinase Mer (Homo sapiens, UniProt Q12866); test: Mer(MERTLGF1) Takeda global kinase panel
[19] = target: Serine/threonine-protein kinase/endoribonuclease IRE1 (Homo sapiens, UniProt O75460); test: IRE1(ERN1PHY1) Takeda global kinase panel
Sequence of Serine/threonine-protein kinase/endoribonuclease IRE1 (O75460 whole entry): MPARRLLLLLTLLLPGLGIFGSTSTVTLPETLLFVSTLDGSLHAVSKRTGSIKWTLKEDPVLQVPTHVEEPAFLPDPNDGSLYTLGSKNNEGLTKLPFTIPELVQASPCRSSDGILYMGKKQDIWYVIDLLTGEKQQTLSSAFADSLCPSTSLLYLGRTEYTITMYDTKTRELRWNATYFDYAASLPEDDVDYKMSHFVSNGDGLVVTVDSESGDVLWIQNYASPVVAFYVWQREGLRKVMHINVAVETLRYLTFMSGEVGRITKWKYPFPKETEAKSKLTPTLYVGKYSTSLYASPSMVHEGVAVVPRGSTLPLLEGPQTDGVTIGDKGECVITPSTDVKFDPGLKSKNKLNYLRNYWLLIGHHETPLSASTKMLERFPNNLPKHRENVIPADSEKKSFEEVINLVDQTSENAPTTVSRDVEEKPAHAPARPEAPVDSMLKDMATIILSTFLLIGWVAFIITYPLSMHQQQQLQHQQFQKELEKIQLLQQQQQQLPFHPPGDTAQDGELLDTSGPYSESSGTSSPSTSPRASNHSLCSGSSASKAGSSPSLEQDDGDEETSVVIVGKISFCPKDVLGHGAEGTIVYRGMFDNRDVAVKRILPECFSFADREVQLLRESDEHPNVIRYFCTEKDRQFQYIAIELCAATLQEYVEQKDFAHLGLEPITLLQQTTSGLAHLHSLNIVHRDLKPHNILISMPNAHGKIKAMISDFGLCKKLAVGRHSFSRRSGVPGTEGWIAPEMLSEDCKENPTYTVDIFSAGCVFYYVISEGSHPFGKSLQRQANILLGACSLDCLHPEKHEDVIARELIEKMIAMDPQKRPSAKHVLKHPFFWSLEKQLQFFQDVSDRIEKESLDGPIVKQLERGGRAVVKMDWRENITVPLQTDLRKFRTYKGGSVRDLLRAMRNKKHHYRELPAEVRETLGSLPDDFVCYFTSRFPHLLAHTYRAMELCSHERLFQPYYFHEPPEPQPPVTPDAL

[20] = target: Cyclin-dependent kinase 2 (Homo sapiens, UniProt P24941); test: CDK2(CDK2CGS1) Takeda global kinase panel
Ephrin type-A receptor 6 = Ephrin type-A receptor 6 (Homo sapiens, UniProt Q9UF33); test: EphA6(EPA6LGI5) Takeda global kinase panel
eIF-2-alpha kinase GCN2 = eIF-2-alpha kinase GCN2 (Homo sapiens, UniProt Q9P2K8); test: GCN2(EIK4PHK1) Takeda global kinase panel
[21] = target: Endothelin receptor type B (Homo sapiens) (UniProt P24530); conditions: Compound concentration 10.0 uM
[22] = target: Serine/threonine-protein kinase BRSK1 (Homo sapiens, UniProt Q8TDC3); test: BRSK1(BRS1LGA1) Takeda global kinase panel
[23] = target: Serine/threonine-protein kinase D3 (Homo sapiens, UniProt O94806); test: PKD3(PRD3LGG5) Takeda global kinase panel
[24] = target: Citron Rho-interacting kinase (Homo sapiens, UniProt O14578); test: CRIK(CIT1LGY1) Takeda global kinase panel
[25] = target: Serine/threonine-protein kinase Sgk2 (Homo sapiens, UniProt Q9HBY8); test: SGK2(SGK2LGE5) Takeda global kinase panel
Sequence of Serine/threonine-protein kinase Sgk2 (Q9HBY8 whole entry): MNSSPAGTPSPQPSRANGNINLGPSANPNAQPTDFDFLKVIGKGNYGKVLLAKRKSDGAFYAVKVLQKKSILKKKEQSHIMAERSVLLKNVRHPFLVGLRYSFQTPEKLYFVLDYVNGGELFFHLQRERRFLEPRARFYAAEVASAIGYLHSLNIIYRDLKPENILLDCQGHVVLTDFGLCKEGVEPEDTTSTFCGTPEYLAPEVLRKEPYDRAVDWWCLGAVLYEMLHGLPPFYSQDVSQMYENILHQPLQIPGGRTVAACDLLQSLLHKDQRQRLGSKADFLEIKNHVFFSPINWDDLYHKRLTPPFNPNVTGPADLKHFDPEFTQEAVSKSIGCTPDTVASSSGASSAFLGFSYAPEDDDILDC

[26] = target: Alpha-2A adrenergic receptor (Homo sapiens) (UniProt P08913); conditions: Compound concentration 10.0 uM
[27] = target: 5-hydroxytryptamine receptor 2B (Homo sapiens) (UniProt P41595); conditions: Compound concentration 10.0 uM
[28] = target: Mitogen-activated protein kinase kinase kinase 13 (Homo sapiens, UniProt O43283); test: LZK(M313LGRJ) Takeda global kinase panel
[29] = target: Protein-tyrosine kinase 2-beta (Homo sapiens, UniProt Q14289); test: PYK2(PT2BLHF1) Takeda global kinase panel
[30] = target: Serine/threonine-protein kinase tousled-like 1 (Homo sapiens, UniProt Q9UKI8); test: TLK1(TLK1LGP1) Takeda global kinase panel
[31] = target: 5-hydroxytryptamine receptor 6 (Homo sapiens) (UniProt P50406); conditions: Compound concentration 10.0 uM
Sequence of 5-hydroxytryptamine receptor 6 (Homo sapiens) (P50406 whole entry): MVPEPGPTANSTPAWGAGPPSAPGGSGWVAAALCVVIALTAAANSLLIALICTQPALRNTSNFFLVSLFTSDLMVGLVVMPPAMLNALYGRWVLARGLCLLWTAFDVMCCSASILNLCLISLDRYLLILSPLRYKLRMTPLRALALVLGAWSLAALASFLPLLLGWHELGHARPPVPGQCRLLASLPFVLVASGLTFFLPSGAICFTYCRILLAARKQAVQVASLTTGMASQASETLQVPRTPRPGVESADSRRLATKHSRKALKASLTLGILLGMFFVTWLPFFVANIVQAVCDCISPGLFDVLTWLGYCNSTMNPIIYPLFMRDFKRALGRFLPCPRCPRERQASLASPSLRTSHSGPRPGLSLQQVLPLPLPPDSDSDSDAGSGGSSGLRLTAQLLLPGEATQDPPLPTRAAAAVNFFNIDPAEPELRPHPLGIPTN

[32] = target: cAMP-dependent protein kinase catalytic subunit alpha (Homo sapiens, UniProt P17612); test: PKAalpha(PRCALGH1) Takeda global kinase panel
[33] = target: Prostaglandin E2 receptor EP4 subtype (Homo sapiens) (UniProt P35408); test: Inhibition of Prostanoid EP4 at 10 µM in the Eurofins-Panlabs radioligand binding assay (Eurofins_assay_268420); set-up: ligand concentration 1 nM; conditions: Compound concentration 10.0 uM
[34] = target: Calcium/calmodulin-dependent protein kinase type IV (Homo sapiens, UniProt Q16566); test: CaMK4(CAM4LGY1) Takeda global kinase panel
Ephrin type-A receptor 8 = Ephrin type-A receptor 8 (Homo sapiens, UniProt P29322); test: EphA8(EPA8LGF1) Takeda global kinase panel
[35] = target: Receptor-type tyrosine-protein kinase FLT3 (Homo sapiens, UniProt P36888); test: FLT3(FLT3MGE1) Takeda global kinase panel
[36] = target: Kappa-type opioid receptor (Homo sapiens) (UniProt P41145); conditions: Compound concentration 10.0 uM
Sequence of Kappa-type opioid receptor (Homo sapiens) (P41145 whole entry): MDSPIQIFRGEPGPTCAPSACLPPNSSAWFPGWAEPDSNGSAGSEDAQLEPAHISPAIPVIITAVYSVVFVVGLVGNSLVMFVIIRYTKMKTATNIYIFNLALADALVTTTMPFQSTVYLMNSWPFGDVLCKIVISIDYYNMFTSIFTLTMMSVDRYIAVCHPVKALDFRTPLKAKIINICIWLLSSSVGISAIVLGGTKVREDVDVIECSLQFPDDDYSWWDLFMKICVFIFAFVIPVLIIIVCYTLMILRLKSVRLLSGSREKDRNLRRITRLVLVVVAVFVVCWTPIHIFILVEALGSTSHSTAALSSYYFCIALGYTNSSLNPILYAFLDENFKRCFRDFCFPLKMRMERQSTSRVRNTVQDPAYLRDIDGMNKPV

[37] = target: Serine/threonine-protein kinase TNNI3K (Homo sapiens, UniProt Q59H18); test: HH498(TNNILGY1) Takeda global kinase panel
[38] = target: Mitogen-activated protein kinase kinase kinase 11 (Homo sapiens, UniProt Q16584); test: MLK3(M311LGF1) Takeda global kinase panel
[39] = target: Death-associated protein kinase 3 (Homo sapiens, UniProt O43293); test: DAPK3(DAP3LGP1) Takeda global kinase panel
[40] = target: Serine/threonine-protein kinase Nek11 (Homo sapiens, UniProt Q8NG66); test: Nek11(NE11LGRI) Takeda global kinase panel
[41] = target: Receptor-interacting serine/threonine-protein kinase 1 (Mus musculus, UniProt Q60855); test: TR-FRET (mouse RIPK1)

Compound CN1C(=O)[C@@H](N2CCc3c(nn(Cc4ccccc4)c3Br)C2=O)COc2ccccc21 [TP-030-2] has an IC50 [1] of 1 µM, an IC50 (Activin receptor type-2A) of 1 µM and an IC50 [2] of 1 µM. It also gave an inhibition [3] of 50.6%, an IC50 [4] of 1 µM and an IC50 [5] of 1 µM. For the same compound, the IC50 [6] was 1 µM, the IC50 [7] was 1 µM and the IC50 (Ephrin type-A receptor 4) was 1 µM. For the same compound, the IC50 [8] was 1 µM, the IC50 [9] was 1 µM and the IC50 [10] was 1 µM. The IC50 [11] was 1 µM, the IC50 [12] was 1 µM and the IC50 [13] was 1 µM. The IC50 [14] was 1 µM, the IC50 [15] was 1 µM and the inhibition [16] was -3.35%. The IC50 [17] was 1 µM, the IC50 [18] was 1 µM and the IC50 [19] was 1 µM. The IC50 [20] was 1 µM, the IC50 (Ephrin type-A receptor 6) was 1 µM and the IC50 (eIF-2-alpha kinase GCN2) was 1 µM. For the same compound, the inhibition [21] was -7%, the IC50 [22] was 1 µM and the IC50 [23] was 1 µM. For the same compound, the IC50 [24] was 1 µM, the IC50 [25] was 1 µM and the inhibition [26] was 68%. For the same compound, the inhibition [27] was 63%, the IC50 [28] was 1 µM and the IC50 [29] was 1 µM. The IC50 [30] was 1 µM, the inhibition [31] was 8.15% and the IC50 [32] was 1 µM. For the same compound, the inhibition [33] was -2%, the IC50 [34] was 1 µM and the IC50 (Ephrin type-A receptor 8) was 1 µM. It also gave an IC50 [35] of 1 µM, an inhibition [36] of 16.5% and an IC50 [37] of 1 µM. It also gave an IC50 [38] of 1 µM, an IC50 [39] of 1 µM and an IC50 [40] of 1 µM. For the same compound, the IC50 [41] was 0.1 µM (active).

— ChEMBL document CHEMBL4507326, “Data for DCP probe TP-030-2” (2021)
